Like-named read-outs stand apart in the source and are kept apart here.
What was measured:
Format in all cases: binding
BRD9 [1] = molecular target: T1, BRD9 (Homo sapiens, UniProt Q9H8M2); test: Protein stability (thermal) shift assay, BRD9
T1 construct: made in house
T1 sequence (Q9H8M2 136-240 limits assumed): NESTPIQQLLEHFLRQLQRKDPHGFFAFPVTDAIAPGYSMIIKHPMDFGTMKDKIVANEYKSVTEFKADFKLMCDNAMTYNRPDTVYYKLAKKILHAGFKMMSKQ
Protocol: (§1) Thermal melting experiments were carried out using an Mx3005p real time PCR machine (Stratagene). Proteins were buffered in 10 mM HEPES, pH 7.5, 500 mM NaCl and assayed in a 96-well plate at a final concentration of 2 μM in 20 μL volume. Compounds were added at a final concentration of 10 or 100 μM. SYPRO Orange (Molecular Probes) was added as a fluorescence probe at a dilution of 1 in 1000. Excitation and emission filters for the SYPRO-Orange dye were set to 465 and 590 nm, respectively. The temperature was raised with a step of 3 °C per minute from 25 to 96 °C, and fluorescence readings were taken at each interval. The temperature dependence of the fluorescence during the protein denaturation process was approximated by the equation [drawing 1] where ΔuG is the difference in unfolding free energy between the folded and unfolded state, R is the gas constant, and yF and yU are the fluorescence intensity of the probe in the presence of completely folded and unfolded protein, respectively.[65] The baselines of the denatured and native states were approximated by a linear fit. The observed temperature shifts, ΔTm^obs, were recorded as the difference between the transition midpoints of sample and reference wells containing protein without ligand in the same plate and determined by nonlinear least-squares fit. Temperature shifts (ΔTm^obs) for three independent measurements per proteins/compound are summarized in Supporting Information Table S1.

BRD3(2) = molecular target: T2, BRD3(2) (Homo sapiens, UniProt Q15059); test: Protein stability (thermal) shift assay, BRD3(2); settings: compound 10 μM, protein 2 μM; average of triplicate
T2 construct: made in house
T2 sequence (Q15059 306-415 limits assumed): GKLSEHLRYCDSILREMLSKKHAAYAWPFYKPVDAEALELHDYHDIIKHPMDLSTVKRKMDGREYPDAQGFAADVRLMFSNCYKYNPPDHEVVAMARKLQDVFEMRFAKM
Protocol: as §1

BAZ2B = molecular target: T3, BAZ2B (Homo sapiens, UniProt Q9UIF8); test: Protein stability (thermal) shift assay, BAZ2B; settings: compound 10 μM, protein 2 μM; average of triplicate; read-out: ΔTm Shift, BAZ2BA
T3 construct: representative BRDs from other structural subfamilies (family I, PCAF); family III, CREBBP; family IV, BRD9; family V, BAZ2B; made in house
T3 sequence (Q9UIF8 2060-2164 limits assumed): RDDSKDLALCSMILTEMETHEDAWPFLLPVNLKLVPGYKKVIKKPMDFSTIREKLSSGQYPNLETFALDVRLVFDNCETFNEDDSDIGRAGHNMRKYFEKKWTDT
Protocol: as §1

BRD4(1) = molecular target: T4, BRD4(1) (Homo sapiens, UniProt O60885); test: Protein stability (thermal) shift assay, BRD4(1); settings: compound 10 μM, protein 2 μM; average of triplicate; read-out: ΔTm Shift, BRD4(1)
T4 construct: made in house
Protocol: as §1

BRDT(1) = molecular target: T5, BRDT(1) (Homo sapiens, UniProt Q58F21); test: Protein stability (thermal) shift assay, BRDT(1); settings: compound 10 μM, protein 2 μM; average of triplicate
T5 construct: made in house
Protocol: as §1

PCAF = molecular target: T6, PCAF (Homo sapiens, UniProt Q92831); test: Protein stability (thermal) shift assay, PCAF; settings: compound 10 μM, protein 2 μM; average of triplicate
T6 construct: representative BRDs from other structural subfamilies (family I, PCAF); made in house
T6 sequence (Q92831 723-827 limits assumed): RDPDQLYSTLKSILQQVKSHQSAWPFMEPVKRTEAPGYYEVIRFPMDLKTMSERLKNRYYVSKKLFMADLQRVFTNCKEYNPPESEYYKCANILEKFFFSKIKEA
Protocol: as §1

BRD2(1) = molecular target: T7, BRD2(1) (Homo sapiens, UniProt P25440); test: Protein stability (thermal) shift assay, BRD2(1); settings: compound 10 μM, protein 2 μM; average of triplicate
T7 construct: Fragments were tested in a thermal shift assay against bromodomains of the BET subfamily; made in house
T7 sequence (P25440 74-180 limits assumed): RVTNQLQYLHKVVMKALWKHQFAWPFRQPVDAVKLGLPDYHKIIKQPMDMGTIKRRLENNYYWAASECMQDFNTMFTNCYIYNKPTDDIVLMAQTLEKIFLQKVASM
Protocol: as §1

BRDT(2) = molecular target: T8, BRDT(2) (Homo sapiens, UniProt Q58F21); test: Protein stability (thermal) shift assay, BRDT(2); settings: compound 10 μM, protein 2 μM; average of triplicate; read-out: ΔTm Shift, BRDT(2)
T8 construct: made in house
Protocol: as §1

BRD9 [2] = molecular target: T1, BRD9; test: Isothermal titration calorimetry, BRD9; settings: for Kd: read-out: KD; for LE (ligand efficiency): LE = ΔG/N, N number of non-hydrogen atoms
Protocol: Experiments were carried out on an ITC200 titration microcalorimeter from MicroCal, LLC (GE Healthcare) equipped with a Washing module, with a cell volume of 0.2003 mL, and a 40 μL microsyringe. Experiments were carried out at 15 °C while stirring at 1000 rpm, in ITC buffer (50 mM HEPES, pH 7.5 (at 25 °C), 150 mM NaCl). The microsyringe was loaded with a solution of the protein sample (300−740 μM protein for BRD9 and BRD4(1), respectively, in ITC buffer) and was carefully inserted into the calorimetric cell which was filled with an amount of the ligand (0.2 mL, 20–25 μM in ITC buffer). The system was first allowed to equilibrate until the cell temperature reached 15 °C, and an additional delay of 60 s was applied. All titrations were conducted using an initial control injection of 0.3 μL followed by 38 identical injections of 1 μL with a duration of 2 s (per injection) and a spacing of 120 s between injections. The titration experiments were designed in such a fashion as to ensure complete saturation of the proteins before the final injection. The heat of dilution for the proteins was independent of their concentration and corresponded to the heat observed from the last injection, following saturation of ligand binding, thus facilitating the estimation of the baseline of each titration from the last injection. The collected data were corrected for protein heats of dilution (measured on separate experiments by titrating the proteins into ITC buffer) and deconvoluted using the MicroCal Origin software supplied with the instrument to yield enthalpies of binding (ΔH) and binding constants (KB) in the same fashion as that previously described in detail by Wiseman and co-workers.[66] Thermodynamic parameters were calculated using the basic equation of thermodynamics (ΔG = ΔH – TΔS = −RT ln KB, where ΔG, ΔH, and ΔS are the changes in free energy, enthalpy, and entropy of binding, respectively). In all cases a single binding site model was employed, supplied with the MicroCal Origin software package.

CREBBP = molecular target: T9, CREBBP (Homo sapiens, UniProt Q92793); test: Protein stability (thermal) shift assay, CREBBP
T9 construct: small thermal shits (1.0–1.3 °C) for the bromodomain of CREBBP; made in house
T9 sequence (Q92793 1085-1192 limits assumed): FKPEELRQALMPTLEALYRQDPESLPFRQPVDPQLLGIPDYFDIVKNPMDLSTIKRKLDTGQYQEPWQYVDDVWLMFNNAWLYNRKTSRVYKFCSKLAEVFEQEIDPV
Protocol: as §1

BRD3(1) = molecular target: T10, BRD3(1) (Homo sapiens, UniProt Q15059); test: Protein stability (thermal) shift assay, BRD3(1); settings: compound 10 μM, protein 2 μM; average of triplicate
T10 construct: Fragments were tested in a thermal shift assay against bromodomains of the BET subfamily; made in house
T10 sequence (Q15059 34-140 limits assumed): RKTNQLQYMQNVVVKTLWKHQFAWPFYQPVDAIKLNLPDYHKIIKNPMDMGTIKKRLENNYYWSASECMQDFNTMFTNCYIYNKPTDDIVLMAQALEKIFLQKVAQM
Protocol: as §1

BRD4(2) = molecular target: T11, BRD4(2) (Homo sapiens, UniProt O60885); test: Protein stability (thermal) shift assay, BRD4(2); settings: compound 10 μM, protein 2 μM; average of triplicate
T11 construct: made in house
Protocol: as §1

BRD2(2) = molecular target: T12, BRD2(2) (Homo sapiens, UniProt P25440); test: Protein stability (thermal) shift assay, BRD2(2); settings: compound 10 μM, protein 2 μM; average of triplicate
T12 construct: made in house
T12 sequence (P25440 344-453 limits assumed): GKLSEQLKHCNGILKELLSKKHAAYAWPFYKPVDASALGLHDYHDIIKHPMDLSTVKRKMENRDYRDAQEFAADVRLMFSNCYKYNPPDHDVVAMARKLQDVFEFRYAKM
Protocol: as §1

PB1(5) = molecular target: T13, PB1(5) (Homo sapiens, UniProt Q86U86); test: Protein stability (thermal) shift assay, PB1(5); settings: compound 10 μM, protein 2 μM; average of triplicate
T13 construct: made in house
T13 sequence (Q86U86 653-763 limits assumed): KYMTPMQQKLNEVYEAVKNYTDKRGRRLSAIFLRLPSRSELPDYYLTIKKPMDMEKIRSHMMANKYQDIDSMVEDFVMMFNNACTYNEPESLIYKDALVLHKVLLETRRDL
Protocol: as §1

[3] = compound 10 μM, protein 2 μM, average of triplicate, read-out: ΔTm Shift, BRD9
[4] = ITC, 50 mM HEPES pH 7.5, 150 mM NaCl, 15 °C, reverse titration, triplicate
[5] = compound 10 μM, protein 2 μM, average of triplicate, read-out: ΔTm Shift, CREBBP
[6] = thermal shift, 10 μM compound, 2 μM protein, read-out: ΔTm

Row | Structure (SMILES) | ΔTm at 10 µM (BRD9 [1]; [3]) | ΔTm at 10 µM (BRD3(2)) | ΔTm at 10 µM (BAZ2B) | ΔTm at 10 µM (BRD4(1)) | ΔTm at 10 µM (BRDT(1)) | ΔTm at 10 µM (PCAF) | ΔTm at 10 µM (BRD2(1)) | ΔTm at 10 µM (BRDT(2)) | ΔTm at 10 µM (CREBBP; [5]) | ΔTm at 10 µM (BRD3(1)) | ΔTm at 10 µM (BRD4(2)) | ΔTm at 10 µM (BRD2(2)) | ΔTm at 10 µM (PB1(5)) | also measured
1 | Cn1cnc2c(Br)nc(N)nc21 [Compound 2b, 2-Amino-6-bromo-9-methylpurine] | -0.0162 °C | -0.6 °C | -0.8 °C | 1.4 °C | -0.8 °C | -1.6 °C | -0.239 °C | -0.4 °C | 3.1 °C | 0.654 °C | -2.4 °C | -1.8 °C | 1.9 °C | KD (BRD9 [2]; [4]): no binding/weak
2 | COc1cccc(OC)c1-c1nc(N)nc2[nH]cnc12 [Compound 6a, 2-Amino-6-(2,6-dimethoxyphenyl)-9H-purine] | -0.1 °C | 1.3 °C | 0.0167 °C | 0.7 °C | -0.122 °C | -0.4 °C | 0.167 °C | 0.364 °C | 0.34 °C | 0.341 °C | -1.3 °C | 0.4 °C | 0.4 °C | 
3 | COc1cccc(OC(C)C)c1-c1nc(N)nc2[nH]cnc12 [Compound 6b, 2-Amino-6-(2-isopropoxy-6-methoxyphenyl)-9H-purine] | -0.162 °C | 0.6 °C | -0.3 °C | 0.6 °C | 0.165 °C | -0.261 °C | -0.459 °C | 0.447 °C | -0.1 °C | 0.651 °C | -0.845 °C | -0.3 °C | 0.216 °C | 
4 | COc1cccc(OCC(C)C)c1-c1nc(N)nc2[nH]cnc12 [Compound 6c, 2-Amino-6-(2-isobutoxy-6-methoxyphenyl)-9H-purine] | -0.0523 °C | 1.1 °C | -0.147 °C | 1 °C | -0.0153 °C | -0.121 °C | 0.187 °C | 0.8 °C | -0.4 °C | 1.2 °C | 0.4 °C | 0.6 °C | -0.324 °C | 
5 | COc1ccccc1-c1nc(N)nc2[nH]cnc12 [Compound 7a, 2-Amino-6-(2-methoxyphenyl)-9H-purine] |  | 2.5 °C | -0.217 °C | 2.3 °C | 0.6 °C | -0.7 °C | 0.6 °C | 1.4 °C |  | 1.4 °C | -2.2 °C | 1.7 °C | 0.236 °C | ΔTm at 10 µM (BRD9 [1]; [6]): 2.9 °C; Kd (BRD9 [2]; [4]): 641 ± 33 nM; ΔG (BRD9 [2]; ITC, 15 °C): –8.16 kcal/mol; N (stoichiometry) (BRD9 [2]; ITC, 15 °C, reverse titration): 1.06 ± 0.004; ΔHobs (BRD9 [2]; ITC, 15 °C, reverse titration): –12.71 ± 0.07 kcal/mol; LE (ligand efficiency) (BRD9 [2]): 0.45; ΔTm at 10 µM (CREBBP; [6]): 1.5 °C
6 | COc1ccc(F)cc1-c1nc(N)nc2[nH]cnc12 [Compound 7b, 2-Amino-6-(5-fluoro-2-methoxyphenyl)-9H-purine] | 2.6 °C | 0.8 °C | 0.3 °C | 0.369 °C | -0.111 °C | -0.151 °C | 0.3 °C | 3 °C | 0.356 °C | 0.548 °C | 0.1 °C | 0.8 °C | 0.5 °C | Kd (BRD9 [2]; [4]): 351 ± 18 nM; TΔS (BRD9 [2]; ITC, 15 °C): –4.52 kcal/mol; ΔG (BRD9 [2]; ITC, 15 °C): –8.52 kcal/mol; N (stoichiometry) (BRD9 [2]; ITC, 15 °C, reverse titration): 0.97 ± 0.004; ΔHobs (BRD9 [2]; ITC, 15 °C, reverse titration): –13.04 ± 0.07 kcal/mol; LE (ligand efficiency) (BRD9 [2]): 0.45
7 | CCOc1ccc(Br)cc1-c1nc(N)nc2[nH]cnc12 [Compound 7e, 2-Amino-6-(5-bromo-2-ethoxyphenyl)-9H-purine] | 0.316 °C | 2.7 °C | -0.5 °C | 1.9 °C | 0.275 °C | -1.1 °C | 0.4 °C | 1.5 °C | 0.5 °C | 1.6 °C | -1.5 °C | 1.7 °C | 0.3 °C | binding to BRD9 in the ΔTm assay (in words) (BRD9 [1]; thermal shift, 10 μM compound): Affinity for BRD9 was lost

— paper PMC4403932 (Journal of Medicinal Chemistry, 2015)
